# Measured values published in ChEMBL document CHEMBL3044917, “Multicomponent one-pot synthesis of 2-naphthol derivatives and evaluation of their anticancer activity” (Med Chem Res, 2012).
# pIC50: −log10 of the molar value.
# Tested on: not listed separately
# Test: Cytotoxicity against Homo sapiens (human) MDA231 cells after 48 hr by MTT assay
# Type: functional, cell-based
# Details: MDA-MB-231, 48 h
row,Structure (SMILES),pIC50
1,C=CCC(c1ccc(C(C)C)cc1)c1c(O)ccc2ccccc12 (stereo unspecified),4.78
2,C=CCC(c1ccccc1F)c1c(O)ccc2ccccc12 (stereo unspecified),5.18
3,COc1cccc2c1C(=O)c1c(O)c3c(c(O)c1C2=O)C[C@@](O)(C(=O)CO)C[C@@H]3O[C@H]1C[C@H](N)[C@H](O)[C@H](C)O1 [DOXORUBICIN],> 6.00
4,C=CCC(c1ccccc1)c1c(O)ccc2ccccc12 (stereo unspecified),4.48
5,C=CCC(c1cccc(F)c1)c1c(O)ccc2ccccc12 (stereo unspecified),5.04
6,C=CCC(c1ccc(C)cc1)c1c(O)ccc2ccccc12 (stereo unspecified),5.22
7,C=CCC(c1ccc(F)cc1)c1c(O)ccc2ccccc12 (stereo unspecified),> 6.00
8,C=CCC(c1ccc(Cl)cc1)c1c(O)ccc2ccccc12 (stereo unspecified),5.12

# Tested on: HeLa
# Test: Cytotoxicity against Homo sapiens (human) HeLa cells after 48 hr by MTT assay
# Type: functional, cell-based
# Details: not given
row,Structure (SMILES),pIC50
1,C=CCC(c1ccc(C(C)C)cc1)c1c(O)ccc2ccccc12 (stereo unspecified),4.90
2,C=CCC(c1ccccc1F)c1c(O)ccc2ccccc12 (stereo unspecified),5.17
3,COc1cccc2c1C(=O)c1c(O)c3c(c(O)c1C2=O)C[C@@](O)(C(=O)CO)C[C@@H]3O[C@H]1C[C@H](N)[C@H](O)[C@H](C)O1 [DOXORUBICIN],> 6.00
4,C=CCC(c1ccccc1)c1c(O)ccc2ccccc12 (stereo unspecified),4.12
5,C=CCC(c1cccc(F)c1)c1c(O)ccc2ccccc12 (stereo unspecified),5.06
6,C=CCC(c1ccc(C)cc1)c1c(O)ccc2ccccc12 (stereo unspecified),5.21
7,C=CCC(c1ccc(F)cc1)c1c(O)ccc2ccccc12 (stereo unspecified),> 6.00
8,C=CCC(c1ccc(Cl)cc1)c1c(O)ccc2ccccc12 (stereo unspecified),5.19

# Tested on: A549
# Test: Cytotoxicity against Homo sapiens (human) A549 cells after 48 hr by MTT assay
# Type: functional, cell-based
# Details: A549, 48 h
row,Structure (SMILES),pIC50
1,C=CCC(c1ccc(C(C)C)cc1)c1c(O)ccc2ccccc12 (stereo unspecified),4.87
2,C=CCC(c1ccccc1F)c1c(O)ccc2ccccc12 (stereo unspecified),5.11
3,COc1cccc2c1C(=O)c1c(O)c3c(c(O)c1C2=O)C[C@@](O)(C(=O)CO)C[C@@H]3O[C@H]1C[C@H](N)[C@H](O)[C@H](C)O1 [DOXORUBICIN],> 6.00
4,C=CCC(c1ccccc1)c1c(O)ccc2ccccc12 (stereo unspecified),4.23
5,C=CCC(c1cccc(F)c1)c1c(O)ccc2ccccc12 (stereo unspecified),5.07
6,C=CCC(c1ccc(C)cc1)c1c(O)ccc2ccccc12 (stereo unspecified),5.17
7,C=CCC(c1ccc(F)cc1)c1c(O)ccc2ccccc12 (stereo unspecified),5.80
8,C=CCC(c1ccc(Cl)cc1)c1c(O)ccc2ccccc12 (stereo unspecified),5.02

# Tested on: HepG2
# Test: Cytotoxicity against Homo sapiens (human) HepG2 cells after 48 hr by MTT assay
# Type: functional, cell-based
# Details: HepG2, 48 h
row,Structure (SMILES),pIC50
1,C=CCC(c1ccc(C(C)C)cc1)c1c(O)ccc2ccccc12 (stereo unspecified),4.82
2,C=CCC(c1ccccc1F)c1c(O)ccc2ccccc12 (stereo unspecified),5.01
3,C=CCC(c1ccccc1)c1c(O)ccc2ccccc12 (stereo unspecified),4.28
4,C=CCC(c1cccc(F)c1)c1c(O)ccc2ccccc12 (stereo unspecified),5.19
5,C=CCC(c1ccc(C)cc1)c1c(O)ccc2ccccc12 (stereo unspecified),5.25
6,C=CCC(c1ccc(F)cc1)c1c(O)ccc2ccccc12 (stereo unspecified),5.92
7,C=CCC(c1ccc(Cl)cc1)c1c(O)ccc2ccccc12 (stereo unspecified),5.13
